Data set [1] can be described thus: Compound cytotoxicity, XTT-based colorimetric assay. The format is cell-based. Conditions: human. A digest of the protocol:
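Cells seeded as for the antiviral assay but left uninfected (MT2). Compound exposure continued to day 4. XTT reagent added and colour read. CC50 calculated.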
A general note: Tetrazolium assays rely on reduction of a dye to a coloured formazan, in cell work by metabolically active cells.

Data set [2] concerns recombinant NL4-3 virus (nef section replaced with Renilla luciferase gene) in MT-2 cells. Put plainly: HIV cell culture assay (antiviral activity, luciferase readout). The format is cell-based. Conditions: Renilla, NL43, MT-2 cells infected for 4-5 days with recombinant NL4-3 Renilla luciferase virus. The method in brief:
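Read-out: Renilla luciferase (live-cell substrate) in infected MT-2 cells after 4-5 d with serial compound dilutions. Virus from 293T transfection of the proviral clone, titered by luciferase in MT-2. EC50 via median effect equation fit.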

[3] abbreviates: uninfected MT2 cells, day 4, XTT, read-out: CC50.

Read-outs that look alike come from different tables or passages of the source.

As a reminder, the CC50 is the concentration that lowers cell viability or growth by half. A word on the EC50: it is the concentration giving half of the maximal effect.

In the case of `CS(=O)(=O)Nc1nn(CCN2CCC(F)CC2)c2c(-n3c([C@H](Cc4cc(F)cc(F)c4)NC(=O)Cn4nc(C5CC5)c5c4C[C@@H]4C[C@H]54)nc4nc(C5CCC(F)(F)CC5)cc(C(F)F)c4c3=O)ccc(Cl)c12` (atropisomer, axis not shown; (P)) [Example 371, N-[(1S)-1-[(3P)-3-{4-chloro-1-[2-(4-fluoropiperidin-1-yl)ethyl]-3-methanesulfonamido-1H-indazol-7-yl}-7-(4,4-difluorocyclohexyl)-5-(difluoromethyl)-4-oxo-3H,4H-pyrido[2,3-d]pyrimidin-2-yl]-2-(3,5-difluorophenyl)ethyl]-2-[(2S,4S)-9-cyclopropyl-7,8-diazatricyclo[4.3.0.0^2,^4]nona-1(6),8-dien-7-yl]acetamide], in data set [1] (setting [3]), the half-maximal cytotoxic concentration (CC50) at 4 days was above 20 nM. Also, the 50% effective concentration (EC50) in data set [2] worked out at 0.009 nM.

For the compound `COCCCn1nc(NS(C)(=O)=O)c2c(Cl)ccc(-n3c([C@H](Cc4cc(F)cc(F)c4)NC(=O)Cn4nc(C(F)F)c5c4C(F)(F)[C@@H]4C[C@H]54)nc4nc(C5CCC(F)(F)CC5)cc(C5CC5)c4c3=O)c21` (atropisomer, axis not shown; (P)) [Example 375, N-[(1S)-1-[(3P)-3-[4-chloro-3-methanesulfonamido-1-(3-methoxypropyl)-1H-indazol-7-yl]-5-cyclopropyl-7-(4,4-difluorocyclohexyl)-4-oxo-3H,4H-pyrido[2,3-d]pyrimidin-2-yl]-2-(3,5-difluorophenyl)ethyl]-2-[(2S,4R)-9-(difluoromethyl)-5,5-difluoro-7,8-diazatricyclo[4.3.0.0^2,^4]nona-1(6),8-dien-7-yl]acetamide], the CC50 at 4 days in data set [1] (setting [3]) is above 20 nM. Also, in data set [2], the EC50 is 0.014 nM.

In the case of `COCCCn1nc(NS(C)(=O)=O)c2c(Cl)ccc(-n3c([C@H](Cc4cc(F)cc(F)c4)NC(=O)Cn4nc(C5CC5)c5c4C[C@@H]4C[C@H]54)nc4nc(C5CCC(F)(F)CC5)cc(C5CC5)c4c3=O)c21` (atropisomer, axis not shown; (P)) [Example 376, N-[(1S)-1-[(3P)-3-[4-chloro-3-methanesulfonamido-1-(3-methoxypropyl)-1H-indazol-7-yl]-5-cyclopropyl-7-(4,4-difluorocyclohexyl)-4-oxo-3H,4H-pyrido[2,3-d]pyrimidin-2-yl]-2-(3,5-difluorophenyl)ethyl]-2-[(2S,4S)-9-cyclopropyl-7,8-diazatricyclo[4.3.0.0^2,^4]nona-1(6),8-dien-7-yl]acetamide], the CC50 at 4 days in data set [1] (setting [3]) is above 20 nM. Further, the 50% effective concentration (EC50) in data set [2] came out at 0.016 nM.

In turn, `CS(=O)(=O)Nc1nn(CCN2[C@@H]3CC[C@H]2COC3)c2c(-n3c([C@H](Cc4cc(F)cc(F)c4)NC(=O)Cn4nc(C5CC5)c5c4C[C@@H]4C[C@H]54)nc4nc(C5CCC(F)(F)CC5)ccc4c3=O)ccc(Cl)c12` (atropisomer, axis not shown; (P)) [Example 381, N-[(1S)-1-[(3P)-3-(4-chloro-3-methanesulfonamido-1-{2-[(1R,5S)-3-oxa-8-azabicyclo[3.2.1]octan-8-yl]ethyl}-1H-indazol-7-yl)-7-(4,4-difluorocyclohexyl)-4-oxo-3H,4H-pyrido[2,3-d]pyrimidin-2-yl]-2-(3,5-difluorophenyl)ethyl]-2-[(2S,4S)-9-cyclopropyl-7,8-diazatricyclo[4.3.0.0^2,^4]nona-1(6),8-dien-7-yl]acetamide] registered a CC50 at 4 days in data set [1] above 20 nM. In data set [2], the EC50 is 0.007 nM.

In the case of `CS(=O)(=O)Nc1nn(CCN2CCN(S(C)(=O)=O)CC2)c2c(-n3c([C@H](Cc4cc(F)cc(F)c4)NC(=O)Cn4nc(C5CC5)c5c4C[C@@H]4C[C@H]54)nc4nc(C5CCC(F)(F)CC5)ccc4c3=O)ccc(Cl)c12` (atropisomer, axis not shown; (P)) [Example 382, N-[(1S)-1-[(3P)-3-{4-chloro-3-methanesulfonamido-1-[2-(4-methanesulfonylpiperazin-1-yl)ethyl]-1H-indazol-7-yl}-7-(4,4-difluorocyclohexyl)-4-oxo-3H,4H-pyrido[2,3-d]pyrimidin-2-yl]-2-(3,5-difluorophenyl)ethyl]-2-[(2S,4S)-9-cyclopropyl-7,8-diazatricyclo[4.3.0.0^2,^4]nona-1(6),8-dien-7-yl]acetamide], the cytotoxic concentration (CC50) at 4 days in data set [1] (setting [3]) was above 20 nM. The 50% effective concentration (EC50) in data set [2] was determined as 0.037 nM.

With `Cc1cc(C2CCC(F)(F)CC2)nc2nc([C@H](Cc3cc(F)cc(F)c3)NC(=O)Cn3nc(C4CC4)c4c3C[C@@H]3C[C@H]43)n(-c3ccc(Cl)c4c(NS(C)(=O)=O)nn(CC(=O)N5C[C@@H](C)O[C@@H](C)C5)c34)c(=O)c12` (atropisomer, axis not shown; (P)) [Example 384, N-[(1S)-1-[(3P)-3-(4-chloro-1-{2-[(2R,6S)-2,6-dimethylmorpholin-4-yl]-2-oxoethyl}-3-methanesulfonamido-1H-indazol-7-yl)-7-(4,4-difluorocyclohexyl)-5-methyl-4-oxo-3H,4H-pyrido[2,3-d]pyrimidin-2-yl]-2-(3,5-difluorophenyl)ethyl]-2-[(2S,4S)-9-cyclopropyl-7,8-diazatricyclo[4.3.0.0^2,^4]nona-1(6),8-dien-7-yl]acetamide], in data set [1] (setting [3]), the CC50 at 4 days is above 20 nM. For the same compound, the EC50 in data set [2] stood at 0.025 nM.

On to `COCCN(CCOC)C(=O)Cn1nc(NS(C)(=O)=O)c2c(Cl)ccc(-n3c([C@H](Cc4cc(F)cc(F)c4)NC(=O)Cn4nc(C5CC5)c5c4C[C@@H]4C[C@H]54)nc4nc(C5CCC(F)(F)CC5)cc(C)c4c3=O)c21` (atropisomer, axis not shown; (P)) [Example 387, 2-[(6P)-4-chloro-7-{2-[(1S)-1-{2-[(2S,4S)-9-cyclopropyl-7,8-diazatricyclo[4.3.0.0^2,^4]nona-1(6),8-dien-7-yl]acetamido}-2-(3,5-difluorophenyl)ethyl]-7-(4,4-difluorocyclohexyl)-5-methyl-4-oxo-3H,4H-pyrido[2,3-d]pyrimidin-3-yl}-3-methanesulfonamido-1H-indazol-1-yl]-N,N-bis(2-methoxyethyl)acetamide], for which the half-maximal cytotoxic concentration (CC50) at 4 days in data set [1] (setting [3]) was above 20 nM. The EC50 in data set [2] turned out to be 0.039 nM.

In the case of `Cc1cc(C2CCC(F)(F)CC2)nc2nc([C@H](Cc3cc(F)cc(F)c3)NC(=O)Cn3nc(C4CC4)c4c3C[C@@H]3C[C@H]43)n(-c3ccc(Cl)c4c(NS(C)(=O)=O)nn(CC(=O)NCCOC(C)C)c34)c(=O)c12` (atropisomer, axis not shown; (P)) [Example 393, N-[(1S)-1-[(3P)-3-[4-chloro-3-methanesulfonamido-1-({[2-(propan-2-yloxy)ethyl]carbamoyl}methyl)-1H-indazol-7-yl]-7-(4,4-difluorocyclohexyl)-5-methyl-4-oxo-3H,4H-pyrido[2,3-d]pyrimidin-2-yl]-2-(3,5-difluorophenyl)ethyl]-2-[(2S,4S)-9-cyclopropyl-7,8-diazatricyclo[4.3.0.0^2,^4]nona-1(6),8-dien-7-yl]acetamide], the cytotoxic concentration (CC50) at 4 days in data set [1] (setting [3]) is above 20 nM. Further, in data set [2], the concentration giving a half-maximal response (EC50) came out at 0.035 nM.

`CO[C@@H](C)CNC(=O)Cn1nc(NS(C)(=O)=O)c2c(Cl)ccc(-n3c([C@H](Cc4cc(F)cc(F)c4)NC(=O)Cn4nc(C5CC5)c5c4C[C@@H]4C[C@H]54)nc4nc(C5CCC(F)(F)CC5)cc(C)c4c3=O)c21` (atropisomer, axis not shown; (P)) [Example 395, N-[(1S)-1-[(3P)-3-[4-chloro-3-methanesulfonamido-1-({[(2S)-2-methoxypropyl]carbamoyl}methyl)-1H-indazol-7-yl]-7-(4,4-difluorocyclohexyl)-5-methyl-4-oxo-3H,4H-pyrido[2,3-d]pyrimidin-2-yl]-2-(3,5-difluorophenyl)ethyl]-2-[(2S,4S)-9-cyclopropyl-7,8-diazatricyclo[4.3.0.0^2,^4]nona-1(6),8-dien-7-yl]acetamide]: the CC50 at 4 days in data set [1] (setting [3]) was above 20 nM. Further, the concentration giving a half-maximal response (EC50) in data set [2] worked out at 0.034 nM.

As for `Cc1cc(C2CCC(F)(F)CC2)nc2nc([C@H](Cc3cc(F)cc(F)c3)NC(=O)Cn3nc(C4CC4)c4c3C[C@@H]3C[C@H]43)n(-c3ccc(Cl)c4c(NS(C)(=O)=O)nn(CC(=O)N5CC(C)(C)OC(C)(C)C5)c34)c(=O)c12` (atropisomer, axis not shown; (P)) [Example 396, N-[(1S)-1-[(3P)-3-{4-chloro-3-methanesulfonamido-1-[2-oxo-2-(2,2,6,6-tetramethylmorpholin-4-yl)ethyl]-1H-indazol-7-yl}-7-(4,4-difluorocyclohexyl)-5-methyl-4-oxo-3H,4H-pyrido[2,3-d]pyrimidin-2-yl]-2-(3,5-difluorophenyl)ethyl]-2-[(2S,4S)-9-cyclopropyl-7,8-diazatricyclo[4.3.0.0^2,^4]nona-1(6),8-dien-7-yl]acetamide], the 50% cytotoxic concentration (CC50) at 4 days in data set [1] (setting [3]) was above 20 nM. Further, the EC50 in data set [2] came out at 0.02 nM.

As for `COCCN(CCOC)C(=O)Cn1nc(NS(C)(=O)=O)c2c(Cl)ccc(-n3c([C@H](Cc4cc(F)cc(F)c4)NC(=O)Cn4nc(C(F)F)c5c4C(F)(F)[C@@H]4C[C@H]54)nc4nc(C5CCC(F)(F)CC5)cc(C)c4c3=O)c21` (atropisomer, axis not shown; (P)) [Example 401, 2-[(6P)-4-chloro-7-[7-(4,4-difluorocyclohexyl)-2-[(1S)-1-{2-[(2S,4R)-9-(difluoromethyl)-5,5-difluoro-7,8-diazatricyclo[4.3.0.02, 4]nona-1(6),8-dien-7-yl]acetamido}-2-(3,5-difluorophenyl)ethyl]-5-methyl-4-oxo-3H,4H-pyrido[2,3-d]pyrimidin-3-yl]-3-methanesulfonamido-1H-indazol-1-yl]-N,N-bis(2-methoxyethyl)acetamide], the CC50 at 4 days in data set [1] (setting [3]) was above 20 nM. Besides, in data set [2], the EC50 was 0.012 nM.

These data come from patent US12594276B2, “Inhibitors of human immunodeficiency virus replication” (ViiV Healthcare UK (No.5) Limited, priority 2024, dated 2026).
